The assay has as its target T1, GIPR (CHO-K1-hGIPR cells) (Homo sapiens, UniProt P48546).
T1 construct: host or cells: CHO-K1
T1 sequence (P48546 22-466): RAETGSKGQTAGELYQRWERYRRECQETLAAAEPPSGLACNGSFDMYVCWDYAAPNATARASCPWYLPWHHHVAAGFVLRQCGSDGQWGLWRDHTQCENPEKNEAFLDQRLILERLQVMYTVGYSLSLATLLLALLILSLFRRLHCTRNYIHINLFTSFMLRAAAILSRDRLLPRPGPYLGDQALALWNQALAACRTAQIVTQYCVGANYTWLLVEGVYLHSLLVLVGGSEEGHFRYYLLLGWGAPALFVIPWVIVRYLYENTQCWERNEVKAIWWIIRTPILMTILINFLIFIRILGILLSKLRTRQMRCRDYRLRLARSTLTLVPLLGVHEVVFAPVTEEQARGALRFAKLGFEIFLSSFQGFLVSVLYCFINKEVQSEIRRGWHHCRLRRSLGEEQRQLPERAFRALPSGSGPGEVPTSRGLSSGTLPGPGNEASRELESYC
Description: FACS binding assay. The following applies: competition with 20 nM GIP-057, 4° C. for 1 hour, read-out: pIC50 Category (converted). In outline:
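Read-out: flow cytometric median fluorescence intensity, APC/Cy5 channel, plotted vs peptide conc.; 4PL fit → EC50/pEC50 or IC50/pIC50. Cells: CHO-K1-hGIPR, Accutase-detached, 500.000/mL in PBS + 1% FCS. Detection: APC-streptavidin 1 μg/mL, 30 min, on ice.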
For orientation: Flow cytometry measures light scatter and fluorescence of single cells or particles in a stream.

*1 amine or outer side, *2 acyl side, *3 side chain or, on linkers, in order; H or OH if unused. Where a SMILES comes first, the peptide text is derived from it. Bridges are numbered along the chain shown (N, C = ends). [ ]: non-standard residue; d: D form. The star is where a group is joined. TBMB(SCH2CH2NH-DOTA) = O=C(O)CN1CCN(CC(=O)O)CCN(CC(=O)NCCSCc2cc(C[*:1])cc(C[*:2])c2)CCN(CC(=O)O)CC1; X5 = NC(=O)[C@H](CCCCNC(=O)CN1CCN(CC(=O)O)CCN(CC(=O)O)CCN(CC(=O)O)CC1)NC(=O)CCC(=O)NCCCOCCOCCOCCCN*; X25 = NC(=O)C(CCCCNC(=O)CN1CCN(CC(=O)O)CCN(CC(=O)O)CCN(CC(=O)O)CC1)NC(=O)CCC(=O)NCCCOCCOCCOCCCN*; X19 = O=C(O)CN1CCN(CC(=O)O)CCN(CC(=O)N2CCN(Cc3cc(C[*:1])cc(C[*:2])c3)CC2)CCN(CC(=O)O)CC1; NMeW = CN[C@@H](Cc1c[nH]c2ccccc12)C(=O)O; 1Nal = N[C@@H](Cc1cccc2ccccc12)C(=O)O; 2Nal = N[C@@H](Cc1ccc2ccccc2c1)C(=O)O; mXylylene = c1cc(C[*:1])cc(C[*:2])c1; Cha = N[C@@H](CC1CCCCC1)C(=O)O; NMeL = CN[C@@H](CC(C)C)C(=O)O; αMeL = CC(C)C[C@](C)(N)C(=O)O; Suc = O=C(CCC(=O)[*:2])[*:1]; NMeC = CN[C@@H](CS)C(=O)O; Aib = CC(C)(N)C(=O)O Where only a bound is given, the exact number is not on record here.

Consider `CC[C@H](C)[C@@H]1NC(=O)[C@H](CC(C)C)NC(=O)[C@@H](C)NC(=O)[C@@H](NC(=O)[C@@H](CC(C)C)NC(=O)[C@H](CCC(=O)O)NC(=O)[C@@H]2CCCN2C(=O)[C@H](Cc2c[nH]c3ccccc23)NC(=O)[C@H](Cc2c[nH]c3ccccc23)NC(=O)CCC(=O)O)CSCc2cc(cc(CN3CCN(C(=O)CN4CCN(CC(=O)O)CCN(CC(=O)O)CCN(CC(=O)O)CC4)CC3)c2)CSC[C@@H](C(N)=O)NC1=O` [GIP-286, HO-Succinyl-Trp-Trp-Pro-Glu-leu-[Cys(tMeBn(DOTA-PP))-ala-Leu-Ile-Cys]-NH2] (Suc-WWPE[dL]C[dA]LIC-NH2; linker 6-10 via X19), for which the IC50 is greater than 1 µM.
`CC[C@H](C)[C@@H]1NC(=O)[C@H](CC(C)C)NC(=O)[C@@H](C)NC(=O)[C@@H](NC(=O)[C@@H](CC(C)C)NC(=O)[C@H](CCC(=O)O)NC(=O)[C@@H]2CCCN2C(=O)[C@H](Cc2c[nH]c3ccccc23)NC(=O)[C@H](Cc2c[nH]c3ccccc23)NC(=O)CCC(=O)O)CSCc2cc(CSCCNC(=O)CN3CCN(CC(=O)O)CCN(CC(=O)O)CCN(CC(=O)O)CC3)cc(c2)CSC[C@@H](C(N)=O)NC1=O` [GIP-287, HO-Succinyl-Trp-Trp-Pro-Glu-leu-[Cys(tMeBn(DOTA-AET))-ala-Leu-Ile-Cys]-NH2] (Suc-WWPE[dL]C[dA]LIC-NH2; linker 6-10 via TBMB(SCH2CH2NH-DOTA)): the IC50 is greater than 1 µM.
`CC[C@H](C)[C@@H]1NC(=O)[C@H](CC(C)C)NC(=O)[C@@H](C)NC(=O)[C@@H](NC(=O)[C@@H](CC(C)C)NC(=O)[C@H](CCC(=O)O)NC(=O)[C@@H]2CCCN2C(=O)[C@H](Cc2c[nH]c3ccccc23)NC(=O)[C@H](Cc2c[nH]c3ccccc23)NC(=O)CCC(=O)O)CSCc2cccc(c2)CSC[C@@H](C(=O)NCCCOCCOCCOCCCNC(=O)CCC(=O)N[C@@H](CCCCNC(=O)CN2CCN(CC(=O)O)CCN(CC(=O)O)CCN(CC(=O)O)CC2)C(N)=O)NC1=O` [GIP-288, HO-Succinyl-Trp-Trp-Pro-Glu-leu-[Cys(3MeBn)-ala-Leu-Ile-Cys]-Ttds-Lys(DOTA)-NH2] (Suc-WWPE[dL]C[dA]LIC-X5; linker 6-10 via mXylylene): the IC50 was greater than 1 µM.
As for `CC[C@H](C)[C@@H]1NC(=O)[C@H](CC(C)C)NC(=O)C(C)(C)NC(=O)[C@@H](NC(=O)[C@H](CC(C)C)NC(=O)[C@H](CCC(=O)O)NC(=O)[C@@H]2CCCN2C(=O)[C@H](Cc2c[nH]c3ccccc23)N(C)C(=O)[C@H](Cc2c[nH]c3ccccc23)NC(=O)[C@H](CC(=O)O)NC(C)=O)CSCc2cccc(c2)CSC[C@@H](C(=O)NCCCOCCOCCOCCCNC(=O)CCC(=O)N[C@@H](CCCCNC(=O)CN2CCN(CC(=O)O)CCN(CC(=O)O)CCN(CC(=O)O)CC2)C(N)=O)NC1=O` [GIP-289, Ac-Asp-Trp-Nmw-Pro-Glu-Leu-[Cys(3MeBn)-Aib-Leu-Ile-Cys]-Ttds-Lys(DOTA)-NH2] (Ac-DW[NMeW]PELC[Aib]LIC-X5; linker 7-11 via mXylylene), the figure is greater than 1 µM; as for `CC[C@H](C)[C@@H]1NC(=O)[C@H](CC(C)C)NC(=O)C(C)(C)NC(=O)[C@@H](NC(=O)[C@H](CC(C)C)N(C)C(=O)[C@H](CCC(=O)O)NC(=O)[C@@H]2CCCN2C(=O)[C@H](Cc2c[nH]c3ccccc23)NC(=O)[C@H](Cc2c[nH]c3ccccc23)NC(=O)[C@H](CC(=O)O)NC(C)=O)CSCc2cccc(c2)CSC[C@@H](C(=O)NCCCOCCOCCOCCCNC(=O)CCC(=O)N[C@@H](CCCCNC(=O)CN2CCN(CC(=O)O)CCN(CC(=O)O)CCN(CC(=O)O)CC2)C(N)=O)NC1=O` [GIP-290, Ac-Asp-Trp-Trp-Pro-Glu-Nml-[Cys(3MeBn)-Aib-Leu-Ile-Cys]-Ttds-Lys(DOTA)-NH2] (Ac-DWWPE[NMeL]C[Aib]LIC-X5; linker 7-11 via mXylylene), greater than 1 µM.
As for `CC[C@H](C)[C@@H]1NC(=O)[C@H](CC(C)C)NC(=O)C(C)(C)NC(=O)[C@@H](N(C)C(=O)[C@H](CC(C)C)NC(=O)[C@H](CCC(=O)O)NC(=O)[C@@H]2CCCN2C(=O)[C@H](Cc2c[nH]c3ccccc23)NC(=O)[C@H](Cc2c[nH]c3ccccc23)NC(=O)[C@H](CC(=O)O)NC(C)=O)CSCc2cccc(c2)CSC[C@@H](C(=O)NCCCOCCOCCOCCCNC(=O)CCC(=O)N[C@@H](CCCCNC(=O)CN2CCN(CC(=O)O)CCN(CC(=O)O)CCN(CC(=O)O)CC2)C(N)=O)NC1=O` [GIP-291, Ac-Asp-Trp-Trp-Pro-Glu-Leu-[Nmc(3MeBn)-Aib-Leu-Ile-Cys]-Ttds-Lys(DOTA)-NH2] (Ac-DWWPEL[NMeC][Aib]LIC-X5; linker 7-11 via mXylylene), the figure is greater than 1 µM; as for `CC[C@H](C)[C@@H]1NC(=O)[C@H](CC(C)C)NC(=O)C(C)(C)NC(=O)[C@@H](NC(=O)[C@H](CC(C)C)NC(=O)[C@H](CCC(=O)O)NC(=O)[C@@H]2CCCN2C(=O)[C@H](Cc2c[nH]c3ccccc23)NC(=O)[C@H](Cc2c[nH]c3ccccc23)NC(=O)[C@H](CC(=O)O)NC(C)=O)CSCc2cccc(c2)CSC[C@@H](C(=O)NCCCOCCOCCOCCCNC(=O)CCC(=O)N[C@@H](CCCCNC(=O)CN2CCN(CC(=O)O)CCN(CC(=O)O)CCN(CC(=O)O)CC2)C(N)=O)N(C)C1=O` [GIP-292, Ac-Asp-Trp-Trp-Pro-Glu-Leu-[Cys(3MeBn)-Aib-Leu-Ile-Nmc]-Ttds-Lys(DOTA)-NH2] (Ac-DWWPELC[Aib]LI[NMeC]-X5; linker 7-11 via mXylylene), greater than 1 µM; as for `CC[C@H](C)[C@@H]1NC(=O)[C@H](CC(C)C)NC(=O)C(C)(C)NC(=O)[C@@H](NC(=O)[C@H](CC(C)C)NC(=O)[C@H](CCC(=O)O)NC(=O)[C@@H]2CCCN2C(=O)[C@H](Cc2c[nH]c3ccccc23)NC(=O)[C@H](Cc2cccc3ccccc23)NC(=O)[C@H](CC(=O)O)NC(C)=O)CSCc2cccc(c2)CSC[C@@H](C(=O)NCCCOCCOCCOCCCNC(=O)CCC(=O)N[C@@H](CCCCNC(=O)CN2CCN(CC(=O)O)CCN(CC(=O)O)CCN(CC(=O)O)CC2)C(N)=O)NC1=O` [GIP-293, Ac-Asp-1Ni-Trp-Pro-Glu-Leu-[Cys(3MeBn)-Aib-Leu-Ile-Cys]-Ttds-Lys(DOTA)-NH2] (Ac-D[1Nal]WPELC[Aib]LIC-X5; linker 7-11 via mXylylene), greater than 1 µM.
Take `CC[C@H](C)[C@@H]1NC(=O)[C@H](CC(C)C)NC(=O)C(C)(C)NC(=O)[C@@H](NC(=O)[C@H](CC(C)C)NC(=O)[C@H](CCC(=O)O)NC(=O)[C@@H]2CCCN2C(=O)[C@H](Cc2ccc3ccccc3c2)NC(=O)[C@H](Cc2c[nH]c3ccccc23)NC(=O)[C@H](CC(=O)O)NC(C)=O)CSCc2cccc(c2)CSC[C@@H](C(=O)NCCCOCCOCCOCCCNC(=O)CCC(=O)NC(CCCCNC(=O)CN2CCN(CC(=O)O)CCN(CC(=O)O)CCN(CC(=O)O)CC2)C(N)=O)NC1=O` (stereo partly drawn) [GIP-294, Ac-Asp-Trp-2Ni-Pro-Glu-Leu-[Cys(3MeBn)-Aib-Leu-Ile-Cys]-Ttds-Lys(DOTA)-NH2] (Ac-DW[2Nal]PELC[Aib]LIC-X25; linker 7-11 via mXylylene): the IC50 was greater than 1 µM.
Take `CC[C@H](C)[C@@H]1NC(=O)[C@H](CC(C)C)NC(=O)C(C)(C)NC(=O)[C@@H](NC(=O)[C@H](CC2CCCCC2)NC(=O)[C@H](CCC(=O)O)NC(=O)[C@@H]2CCCN2C(=O)[C@H](Cc2c[nH]c3ccccc23)NC(=O)[C@H](Cc2c[nH]c3ccccc23)NC(=O)[C@H](CC(=O)O)NC(C)=O)CSCc2cccc(c2)CSC[C@@H](C(=O)NCCCOCCOCCOCCCNC(=O)CCC(=O)N[C@@H](CCCCNC(=O)CN2CCN(CC(=O)O)CCN(CC(=O)O)CCN(CC(=O)O)CC2)C(N)=O)NC1=O` [GIP-295, Ac-Asp-Trp-Trp-Pro-Glu-Cha-[Cys(3MeBn)-Aib-Leu-Ile-Cys]-Ttds-Lys(DOTA)-NH2] (Ac-DWWPE[Cha]C[Aib]LIC-X5; linker 7-11 via mXylylene): the IC50 is greater than 1 µM.
As for `CC[C@H](C)[C@@H]1NC(=O)[C@H](CC(C)C)NC(=O)C(C)(C)NC(=O)[C@@H](NC(=O)[C@](C)(CC(C)C)NC(=O)[C@H](CCC(=O)O)NC(=O)[C@@H]2CCCN2C(=O)[C@H](Cc2c[nH]c3ccccc23)NC(=O)[C@H](Cc2c[nH]c3ccccc23)NC(=O)[C@H](CC(=O)O)NC(C)=O)CSCc2cccc(c2)CSC[C@@H](C(=O)NCCCOCCOCCOCCCNC(=O)CCC(=O)N[C@@H](CCCCNC(=O)CN2CCN(CC(=O)O)CCN(CC(=O)O)CCN(CC(=O)O)CC2)C(N)=O)NC1=O` [GIP-296, Ac-Asp-Trp-Trp-Pro-Glu-Aml-[Cys(3MeBn)-Aib-Leu-Ile-Cys]-Ttds-Lys(DOTA)-NH2] (Ac-DWWPE[αMeL]C[Aib]LIC-X5; linker 7-11 via mXylylene), the figure is greater than 1 µM; as for `CC[C@H](C)[C@@H]1NC(=O)[C@H](CC(C)C)NC(=O)C(C)(C)NC(=O)[C@@H](NC(=O)[C@H](CC(C)C)NC(=O)[C@H](CCC(=O)O)NC(=O)[C@@H]2CCCN2C(=O)[C@H](Cc2c[nH]c3ccccc23)NC(=O)[C@H](Cc2c[nH]c3ccccc23)N(C)C(=O)[C@H](CC(=O)O)NC(C)=O)CSCc2cccc(c2)CSC[C@@H](C(=O)NCCCOCCOCCOCCCNC(=O)CCC(=O)N[C@@H](CCCCNC(=O)CN2CCN(CC(=O)O)CCN(CC(=O)O)CCN(CC(=O)O)CC2)C(N)=O)NC1=O` [GIP-297, Ac-Asp-Nmw-Trp-Pro-Glu-Leu-[Cys(3MeBn)-Aib-Leu-Ile-Cys]-Ttds-Lys(DO TA)-NH2] (Ac-D[NMeW]WPELC[Aib]LIC-X5; linker 7-11 via mXylylene), greater than 1 µM.

These data come from patent US20250296971A1, “GASTRIC INHIBITORY PEPTIDE RECEPTOR LIGANDS” (priority 2021, published 2025).
